# PMC8094182, “8-Substituted Triazolobenzodiazepines: In Vitro and In Vivo Pharmacology in Relation to Structural Docking at the α1 Subunit-Containing GABAA Receptor” (Frontiers in Pharmacology, 2021)
# What was measured:
# [1] = molecular target: T1, rat α5β3γ2 GABAA receptor (α5GABAA) (Rattus norvegicus, UniProt P18508+P19969); assay: two-electrode voltage clamp, Xenopus oocytes, potentiation of GABA EC3 current; format: cell-based; conditions: read-out: α5
# T1 construct: gene Gabra5; Full-length subunits co-expressed; pentamer; with Gamma-aminobutyric acid receptor subunit beta-3
# T1 sequence (P19969 26-464): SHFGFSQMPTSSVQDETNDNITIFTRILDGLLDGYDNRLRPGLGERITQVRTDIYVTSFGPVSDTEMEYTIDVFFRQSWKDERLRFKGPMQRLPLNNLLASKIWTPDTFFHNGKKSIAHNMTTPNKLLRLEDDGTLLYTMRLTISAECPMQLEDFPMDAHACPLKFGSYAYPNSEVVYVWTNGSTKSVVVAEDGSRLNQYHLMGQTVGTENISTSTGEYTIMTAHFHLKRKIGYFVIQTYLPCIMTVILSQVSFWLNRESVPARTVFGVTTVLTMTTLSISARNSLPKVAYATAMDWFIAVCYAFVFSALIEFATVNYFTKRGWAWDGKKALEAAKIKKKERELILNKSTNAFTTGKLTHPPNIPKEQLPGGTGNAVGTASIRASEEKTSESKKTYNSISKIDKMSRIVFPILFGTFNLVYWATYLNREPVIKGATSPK
# T1 sequence (P18508 39-466): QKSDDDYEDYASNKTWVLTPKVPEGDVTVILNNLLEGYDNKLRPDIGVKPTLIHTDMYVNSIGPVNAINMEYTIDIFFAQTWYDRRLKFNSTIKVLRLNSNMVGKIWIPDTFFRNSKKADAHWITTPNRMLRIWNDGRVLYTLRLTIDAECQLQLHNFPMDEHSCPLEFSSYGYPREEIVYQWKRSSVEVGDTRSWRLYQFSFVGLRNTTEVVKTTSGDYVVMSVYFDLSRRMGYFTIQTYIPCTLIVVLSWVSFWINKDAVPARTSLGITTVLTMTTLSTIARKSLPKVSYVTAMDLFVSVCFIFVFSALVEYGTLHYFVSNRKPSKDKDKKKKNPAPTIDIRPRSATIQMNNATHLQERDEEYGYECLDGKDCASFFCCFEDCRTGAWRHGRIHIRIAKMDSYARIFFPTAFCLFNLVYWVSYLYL
# T1 sequence (P63079 26-473 partner): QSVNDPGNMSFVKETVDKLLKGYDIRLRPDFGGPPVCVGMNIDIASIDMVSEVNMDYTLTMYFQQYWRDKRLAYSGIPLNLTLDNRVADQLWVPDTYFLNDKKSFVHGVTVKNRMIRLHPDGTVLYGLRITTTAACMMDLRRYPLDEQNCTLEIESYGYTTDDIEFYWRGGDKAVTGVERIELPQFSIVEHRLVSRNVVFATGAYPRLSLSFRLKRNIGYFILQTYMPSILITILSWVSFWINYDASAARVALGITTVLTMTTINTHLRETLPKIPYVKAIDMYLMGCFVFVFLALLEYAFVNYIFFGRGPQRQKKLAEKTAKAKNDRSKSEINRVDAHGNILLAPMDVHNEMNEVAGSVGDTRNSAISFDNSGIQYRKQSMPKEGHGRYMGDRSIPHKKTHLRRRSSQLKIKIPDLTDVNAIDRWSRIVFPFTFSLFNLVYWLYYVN
# Text: two-electrode voltage clamp, Xenopus oocytes, potentiation of GABA EC3 current on rat α5β3γ2 GABAA receptor (α5GABAA)
# [2] = molecular target: T2, rat α1β3γ2 GABAA receptor (α1GABAA) (Rattus norvegicus, UniProt P18508+P62813); assay: as above; format: cell-based; conditions: read-out: α1
# T2 construct: gene Gabra1; Full-length subunits co-expressed; pentamer; with Gamma-aminobutyric acid receptor subunit beta-3
# T2 sequence (P62813 28-455): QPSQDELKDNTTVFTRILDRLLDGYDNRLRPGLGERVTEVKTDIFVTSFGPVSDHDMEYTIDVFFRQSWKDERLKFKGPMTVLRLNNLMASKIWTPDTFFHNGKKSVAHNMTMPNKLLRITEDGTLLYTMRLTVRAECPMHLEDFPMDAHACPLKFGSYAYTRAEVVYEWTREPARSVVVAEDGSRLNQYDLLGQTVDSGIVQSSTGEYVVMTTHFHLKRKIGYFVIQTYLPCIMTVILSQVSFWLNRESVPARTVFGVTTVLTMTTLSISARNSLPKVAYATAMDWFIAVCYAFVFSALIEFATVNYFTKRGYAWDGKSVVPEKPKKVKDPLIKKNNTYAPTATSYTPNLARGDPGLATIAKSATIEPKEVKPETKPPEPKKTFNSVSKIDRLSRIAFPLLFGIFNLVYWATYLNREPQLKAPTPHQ
# T2 sequence (P18508 39-466): as the sequence (P18508 39-466) above
# T2 sequence (P63079 26-473 partner): as the sequence (P63079 26-473 partner) above
# Text: two-electrode voltage clamp, Xenopus oocytes, potentiation of GABA EC3 current on rat α1β3γ2 GABAA receptor (α1GABAA)
# [3] = molecular target: T2, rat α1β3γ2 GABAA receptor (α1GABAA); assay: [3H]flunitrazepam displacement, HEK […] membranes, filtration; format: binding; conditions: read-out: α1
# [4] = molecular target: T1, rat α5β3γ2 GABAA receptor (α5GABAA); assay: as above; format: binding; conditions: read-out: α5
# [5] = molecular target: T3, rat α3β3γ2 GABAA receptor (α3GABAA) (Rattus norvegicus, UniProt P18508+P20236); assay: two-electrode voltage clamp, Xenopus oocytes, potentiation of GABA EC3 current; format: cell-based; conditions: read-out: α3
# T3 construct: gene Gabra3; Full-length subunits co-expressed; pentamer; with Gamma-aminobutyric acid receptor subunit beta-3
# T3 sequence (P20236 29-493): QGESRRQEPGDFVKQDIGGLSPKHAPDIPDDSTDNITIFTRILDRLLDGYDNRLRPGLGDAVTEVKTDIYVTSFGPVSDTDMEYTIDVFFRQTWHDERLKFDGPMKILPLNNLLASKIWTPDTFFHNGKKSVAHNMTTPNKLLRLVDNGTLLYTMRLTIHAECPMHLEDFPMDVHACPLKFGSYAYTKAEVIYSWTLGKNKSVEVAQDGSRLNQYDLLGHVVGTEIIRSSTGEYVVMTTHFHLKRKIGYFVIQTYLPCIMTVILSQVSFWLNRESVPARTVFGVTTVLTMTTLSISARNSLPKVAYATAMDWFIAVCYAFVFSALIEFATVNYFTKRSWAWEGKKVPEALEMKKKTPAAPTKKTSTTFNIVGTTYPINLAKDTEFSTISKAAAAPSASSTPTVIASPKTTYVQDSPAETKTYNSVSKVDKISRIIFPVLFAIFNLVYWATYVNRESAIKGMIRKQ
# T3 sequence (P18508 39-466): as the sequence (P18508 39-466) above
# T3 sequence (P63079 26-473 partner): as the sequence (P63079 26-473 partner) above
# Text: two-electrode voltage clamp, Xenopus oocytes, potentiation of GABA EC3 current on rat α3β3γ2 GABAA receptor (α3GABAA)
# [6] = molecular target: T3, rat α3β3γ2 GABAA receptor (α3GABAA); assay: [3H]flunitrazepam displacement, HEK […] membranes, filtration; format: binding; conditions: read-out: α3
# [7] = molecular target: T4, rat α2β3γ2 GABAA receptor (α2GABAA) (Rattus norvegicus, UniProt P18508+P23576); assay: as above; format: binding; conditions: read-out: α2
# T4 construct: gene Gabra2; Full-length subunits co-expressed; pentamer; with Gamma-aminobutyric acid receptor subunit beta-3
# T4 sequence (P23576 29-451): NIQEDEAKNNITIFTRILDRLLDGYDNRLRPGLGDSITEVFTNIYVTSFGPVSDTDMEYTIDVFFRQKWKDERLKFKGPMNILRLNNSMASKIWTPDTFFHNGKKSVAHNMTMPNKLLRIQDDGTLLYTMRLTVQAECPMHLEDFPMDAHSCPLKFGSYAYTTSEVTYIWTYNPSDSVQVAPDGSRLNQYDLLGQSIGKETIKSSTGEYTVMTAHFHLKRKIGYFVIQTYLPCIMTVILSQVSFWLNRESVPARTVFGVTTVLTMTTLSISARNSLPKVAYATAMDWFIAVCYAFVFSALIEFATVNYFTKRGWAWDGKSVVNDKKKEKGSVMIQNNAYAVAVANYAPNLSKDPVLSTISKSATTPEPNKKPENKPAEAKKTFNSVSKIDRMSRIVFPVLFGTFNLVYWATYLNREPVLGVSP
# T4 sequence (P18508 39-466): as the sequence (P18508 39-466) above
# T4 sequence (P63079 26-473 partner): as the sequence (P63079 26-473 partner) above
# [8] = molecular target: T4, rat α2β3γ2 GABAA receptor (α2GABAA); assay: two-electrode voltage clamp, Xenopus oocytes, potentiation of GABA EC3 current; format: cell-based; conditions: read-out: α2
# Text: two-electrode voltage clamp, Xenopus oocytes, potentiation of GABA EC3 current on rat α2β3γ2 GABAA receptor (α2GABAA)
structure (smiles),measurement,setting,value
"C#Cc1ccc2c(c1)C(c1ccccc1Cl)=NCc1nnc(C)n1-2 [XLi-JY-DMH, 6-(2-chlorophenyl)-8-ethynyl-1-methyl-4H-benzo [f][1,2,4]triazolo[4,3-a][1,4]diazepine]",EC50,[1],14.9 nM
same,EC50,[2],35.2 nM
same,Ki,[3],7.7 ± 5.5 nM
same,Ki,[4],3.8 ± 1 nM
same,EC50,[5],47 nM
same,Ki,[6],4.2 ± 1.6 nM
same,Ki,[7],7.2 ± 3 nM
same,EC50,[8],20.7 nM
